According to patent publication US9585875B2, “TRPM8 antagonists” (Dompé S.P.A., priority 2011, dated 2017):

How the values were obtained:
[1] = Log D; type: physicochemical
[2] = target: TRPV4 (Homo sapiens, UniProt Q9HBA0); test: Calcium influx counterassay, agonist GSK1016790A; type: cell-based; conditions: 10 μM GSK1016790A = 100%, read-out: Normalized % inhibition (TRPV4); for inhibition at 1 µM: Test Conc. 1 uM; for inhibition at 10 µM: Test Conc. 10 uM
Protocol: In parallel, the ability of each test compound to act as an antagonist of TRPV4 was evaluated with a calcium influx assay.

[3] = target: hERG channel (Homo sapiens, UniProt Q12809); test: hERG binding
[4] = target: T1, TRPM8 (Homo sapiens, UniProt Q7Z2W7)
From the text: (§1) Values were considered significant if the test compound mean was three or more standard deviations away from the positive control agonist mean.

[5] = target: CYP 2C19 (Homo sapiens, UniProt P33261); test: CYP inhibition; type: in vitro ADME
[6] = target: T1, TRPM8; test: HTS cell-based Ca2+ mobilization assay (FLIPR TETRA) in HEK293/hTRPM8 cells, agonist Cooling Agent 10; parameters: expressed in transfected cells; conditions: HEK293/hTRPM8, Cooling Agent 10 at EC80
From the text: A functional cell-based assay for the identification of TRPM8 receptor antagonists, optimised to allow high throughput screening at FLIPR^TETRA, was developed in HEK293 cells by stable pure clone selection and functional characterization with a fluorescent calcium sensitive dye.
TRPM8 was cloned into the multiple cloning site of pcDNA3 mammalian expression vector; the obtained construct pcDNA3/hTRPM8 was fully sequence verified and used for the transfection of HEK293 cell line. HEK293 cells stably transfected with TRPM8 gene were maintained in Minimum essential medium. The cells were transfected with the pcDNA3/hTRPM8 vector by electroporation and then selected with medium containing 0.8 mg/ml G418 for 10-15 days.
The following commercial compounds were used as ligands:
Activator: Cooling Agent 10 (Takasago CAS N. 87061-04-9)
Blocker: Capsazepine (SIGMA cat #D_5879)
The experimental activities were performed using FLIPR^TETRA instruments.
HEK293 cells stably transfected with TRPM8 gene were maintained in Minimum essential medium.
The TRPM8 cell line was analysed for the response to a library of compounds using a Ca^2+ mobilization-dependent fluorescence signal in 384 wells microtiter plate format. The analysis was performed using the FLIPR^TETRA (MDC) with the ICCD Camera.
The execution of the assay involved the use of three microtiter plates:
1. Assay plate, containing cells loaded with dye and prepared as follows:
Cells were seeded at 15000 c/well in Poly-D-Lysine coated 384 wells Microtiter Plates in complete medium (25 μl/well).
24 h after seeding, the cell plates were washed with Tyrode assay buffer by the Microplate Washer and 10 μL of Tyrode assay buffer was left in each well.
Cells were then loaded with 10 μL/well of the Fluo-4 NW dye solution by CyBi®-Well pipettor. Each bottle of Fluo4-NW dye (Molecular Probes cat. #F36206, component A) was re-suspended in 8 mL of Tyrode assay buffer and supplemented with 100 μL of water-soluble probenecid (MolecularProbes cat.#F36206, component B).
Dye loaded cell plates were incubated for 1 h at room temperature.
2. Compound Dilution Plate (FIG. 1), containing diluted test compounds, formulated as follows: […]
Column 1: wells containing Assay Buffer plus DMSO 0.5% final
Columns 3-22: wells containing Assay Buffer plus 0.5% DMSO final. To these wells the compounds to be tested were added at 3× concentration.
Column 23: alternating wells of Max Signal Control in second injection (Assay buffer) and Min Signal Control in second injection (Antagonist Capsazepine IC100, 50 μM) in Assay buffer plus 0.5% DMSO final;
Column 24: wells containing Capsazepine (Antagonist) at 8 concentrations in duplicate at final concentrations of 50 μM, 25 μM, 6.25 μM, 3.15 μM, 1.56 μM, 780 nM, […] in Assay buffer plus 0.5% DMSO final.
3. Activator Plate (FIG. 2), containing agonist Cooling Agent 10 at EC80, formulated as follows:
Column 1: Cooling Agent 10 (Agonist) at 8 concentrations dose response in duplicate at final concentrations of 100 μM, 31.6 μM, 10 μM, 3.16 μM, 1 μM, 316 nM, 100 nM, 31.6 nM in Assay buffer;
Columns 2-24: Cooling Agent 10 (Agonist) at EC80 (3 fold concentrated, 20 μM final) in Assay buffer.
The test was carried out according to a procedure comprising the following steps:
1. The samples contained in the wells of the Compound Plate were added to the corresponding wells of the Assay Plate by the FLIPR^TETRA, thus resulting in the addition in Columns 3-22 of the test compounds at 3× concentration to the cells of the assay plates. No mixing was performed in the assay wells and the signal of the emitted fluorescence was recorded for 300 seconds. 2. The samples contained in the wells of the Activator Plate were added to the corresponding wells of the Assay Plate by the FLIPR^TETRA, thus resulting in the addition in Columns 3-22 of the Assay Plate of the agonist compound in addition to the test compounds. The signal of the emitted fluorescence was recorded for 180 seconds.

[7] = tested on: Male Sprague-Dawley rats; test: Chronic constriction injury model, mechanical allodynia (von Frey); type: in vivo, rat; conditions: 10 mg/kg i.v., 2 hours post-dosing, CCI rats
Protocol: Male Sprague-Dawley rats were used. Under pentobarbital anesthesia, the sciatic nerve was exposed at mid-thigh level (Bennett G J et al Pain. 33: 87-107, 1988). Four ligatures were loosely tied around the sciatic nerve of the left hind limb to induce enhancement of pain caused by nerve injury. Mechanical allodynia was evaluated by using a set of 8 manual von Frey monofilaments (0.4, 0.6, 1, 2, 4, 6, 8 and 15 g) 18 days after surgery and basal response was recorded.
On day 19 body weight was recorded and compounds 10 and 45 were administered by i.v. route at the dose of 10 mg/kg. 60, 120 and 180 min post dose, mechanical allodynia was tested by evaluation of the Paw Withdrawl Threshold (PWT) and % Maximum Possible Effect (MPE) was calculated according to the following formula: […]
The mechanical allodynia was tested 1 day before treatment and at 2 hours post-dosing. One-way ANOVA followed by Dunnett's test was applied for comparison between vehicle control and test compound treated groups. *p<0.05 is considered significant.

[8] = Plasma Protein Binding; type: in vitro ADME; conditions: rat
[9] = target: T1, TRPM8; test: cell-based
From the text: as §1

[10] = target: CYP 2D6 (Homo sapiens, UniProt P10635); test: CYP inhibition; type: in vitro ADME
[11] = Pharmacokinetic profile in rat; type: in vivo; conditions: plasma; for half-life: iv, read-out: t1/2 i.v. rat
[12] = target: CYP 1A2 (Homo sapiens, UniProt P05177); test: CYP inhibition; type: in vitro ADME
[13] = target: CYP 3A4 (Homo sapiens, UniProt P08684); test: CYP inhibition; type: in vitro ADME
CYP 3A4, sequence (P08684 whole entry): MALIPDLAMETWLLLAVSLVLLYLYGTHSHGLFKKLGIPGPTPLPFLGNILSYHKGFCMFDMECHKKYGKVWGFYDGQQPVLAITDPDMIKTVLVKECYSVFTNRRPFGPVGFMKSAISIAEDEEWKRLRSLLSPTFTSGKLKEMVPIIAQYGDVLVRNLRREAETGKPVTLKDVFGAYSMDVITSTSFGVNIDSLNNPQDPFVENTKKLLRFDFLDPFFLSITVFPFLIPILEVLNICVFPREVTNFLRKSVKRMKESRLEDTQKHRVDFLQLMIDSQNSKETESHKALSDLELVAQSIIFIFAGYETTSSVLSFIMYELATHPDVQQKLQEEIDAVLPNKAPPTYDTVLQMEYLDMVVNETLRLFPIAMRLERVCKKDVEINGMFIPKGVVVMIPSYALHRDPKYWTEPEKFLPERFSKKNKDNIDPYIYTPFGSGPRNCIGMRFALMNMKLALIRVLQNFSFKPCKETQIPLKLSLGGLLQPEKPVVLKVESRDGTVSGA

TRPV4, sequence (Q9HBA0 whole entry, species assumed): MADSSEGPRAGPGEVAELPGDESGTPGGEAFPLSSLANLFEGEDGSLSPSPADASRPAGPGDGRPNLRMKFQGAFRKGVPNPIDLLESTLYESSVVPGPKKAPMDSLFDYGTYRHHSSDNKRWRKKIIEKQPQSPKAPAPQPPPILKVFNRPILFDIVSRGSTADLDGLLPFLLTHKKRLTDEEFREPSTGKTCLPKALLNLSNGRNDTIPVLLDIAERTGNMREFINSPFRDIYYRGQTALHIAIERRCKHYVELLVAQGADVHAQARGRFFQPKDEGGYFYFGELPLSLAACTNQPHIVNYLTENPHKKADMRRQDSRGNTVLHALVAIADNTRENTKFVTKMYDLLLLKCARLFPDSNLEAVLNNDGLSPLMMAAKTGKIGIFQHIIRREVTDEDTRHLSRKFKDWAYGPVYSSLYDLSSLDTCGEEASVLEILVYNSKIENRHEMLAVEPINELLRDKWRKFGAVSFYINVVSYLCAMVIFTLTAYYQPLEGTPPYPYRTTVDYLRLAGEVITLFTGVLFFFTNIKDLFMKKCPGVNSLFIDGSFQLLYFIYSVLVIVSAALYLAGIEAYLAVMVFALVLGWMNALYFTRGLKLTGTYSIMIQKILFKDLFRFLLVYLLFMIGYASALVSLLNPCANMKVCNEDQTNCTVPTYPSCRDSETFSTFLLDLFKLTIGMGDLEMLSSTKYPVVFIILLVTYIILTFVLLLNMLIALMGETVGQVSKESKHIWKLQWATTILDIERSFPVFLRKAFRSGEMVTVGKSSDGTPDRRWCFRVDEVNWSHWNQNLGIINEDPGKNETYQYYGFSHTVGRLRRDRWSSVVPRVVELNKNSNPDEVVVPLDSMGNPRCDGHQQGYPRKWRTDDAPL
T1 sequence (Q7Z2W7 whole entry): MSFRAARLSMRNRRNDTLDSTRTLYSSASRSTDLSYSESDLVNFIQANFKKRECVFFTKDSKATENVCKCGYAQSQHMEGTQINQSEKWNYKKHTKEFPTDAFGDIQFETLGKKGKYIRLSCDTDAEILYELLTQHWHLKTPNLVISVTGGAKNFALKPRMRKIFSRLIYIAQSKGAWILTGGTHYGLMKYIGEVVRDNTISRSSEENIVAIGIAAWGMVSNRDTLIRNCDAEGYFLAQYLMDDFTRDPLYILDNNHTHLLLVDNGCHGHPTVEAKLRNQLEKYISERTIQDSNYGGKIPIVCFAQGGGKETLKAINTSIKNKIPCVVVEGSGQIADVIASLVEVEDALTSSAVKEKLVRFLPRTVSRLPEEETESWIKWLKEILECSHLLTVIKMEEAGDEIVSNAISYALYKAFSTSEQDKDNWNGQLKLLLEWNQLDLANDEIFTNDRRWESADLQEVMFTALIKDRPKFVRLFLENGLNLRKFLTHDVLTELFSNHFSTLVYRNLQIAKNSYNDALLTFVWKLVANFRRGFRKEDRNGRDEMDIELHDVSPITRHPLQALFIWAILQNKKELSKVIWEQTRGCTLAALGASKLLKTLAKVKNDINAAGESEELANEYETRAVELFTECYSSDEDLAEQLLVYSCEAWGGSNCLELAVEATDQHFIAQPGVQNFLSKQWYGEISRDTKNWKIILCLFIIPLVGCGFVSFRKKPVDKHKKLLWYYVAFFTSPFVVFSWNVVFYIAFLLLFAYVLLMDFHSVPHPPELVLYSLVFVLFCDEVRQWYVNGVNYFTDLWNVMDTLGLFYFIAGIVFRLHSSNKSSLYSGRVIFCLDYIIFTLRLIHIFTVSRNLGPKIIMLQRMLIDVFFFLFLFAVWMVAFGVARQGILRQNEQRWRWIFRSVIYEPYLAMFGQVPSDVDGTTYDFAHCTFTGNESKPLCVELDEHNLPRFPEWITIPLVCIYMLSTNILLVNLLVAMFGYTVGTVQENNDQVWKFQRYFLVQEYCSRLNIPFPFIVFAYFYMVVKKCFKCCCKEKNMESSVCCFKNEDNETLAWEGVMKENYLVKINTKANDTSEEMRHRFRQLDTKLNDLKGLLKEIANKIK
CYP 1A2, sequence (P05177 whole entry): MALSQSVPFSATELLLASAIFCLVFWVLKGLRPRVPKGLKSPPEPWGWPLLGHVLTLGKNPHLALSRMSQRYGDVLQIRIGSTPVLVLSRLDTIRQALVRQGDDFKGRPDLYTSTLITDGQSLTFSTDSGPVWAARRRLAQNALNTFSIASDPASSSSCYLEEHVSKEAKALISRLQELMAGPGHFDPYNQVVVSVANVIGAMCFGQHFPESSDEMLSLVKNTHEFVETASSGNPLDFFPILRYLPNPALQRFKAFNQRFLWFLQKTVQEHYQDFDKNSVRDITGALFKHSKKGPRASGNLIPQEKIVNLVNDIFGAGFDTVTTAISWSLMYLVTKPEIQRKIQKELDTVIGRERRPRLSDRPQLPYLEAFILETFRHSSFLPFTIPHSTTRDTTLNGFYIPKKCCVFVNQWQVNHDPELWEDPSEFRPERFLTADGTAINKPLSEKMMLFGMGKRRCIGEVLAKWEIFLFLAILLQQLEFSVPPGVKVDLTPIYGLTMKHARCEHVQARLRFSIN
CYP 2D6, sequence (P10635 whole entry): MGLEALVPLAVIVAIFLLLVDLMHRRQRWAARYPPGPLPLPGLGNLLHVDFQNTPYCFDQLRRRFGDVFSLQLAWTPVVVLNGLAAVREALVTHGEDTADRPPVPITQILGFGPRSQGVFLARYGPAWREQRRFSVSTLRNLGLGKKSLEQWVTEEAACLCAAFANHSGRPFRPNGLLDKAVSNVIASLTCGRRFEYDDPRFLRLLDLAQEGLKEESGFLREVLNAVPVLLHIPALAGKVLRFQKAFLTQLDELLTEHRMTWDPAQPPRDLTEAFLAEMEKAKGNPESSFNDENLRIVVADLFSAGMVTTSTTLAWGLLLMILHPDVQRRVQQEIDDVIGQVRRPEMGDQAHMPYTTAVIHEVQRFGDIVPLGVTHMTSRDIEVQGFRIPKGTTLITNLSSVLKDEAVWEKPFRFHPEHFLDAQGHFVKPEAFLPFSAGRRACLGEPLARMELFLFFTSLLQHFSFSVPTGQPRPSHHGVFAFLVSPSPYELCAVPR
CYP 2C19, sequence (P33261 whole entry): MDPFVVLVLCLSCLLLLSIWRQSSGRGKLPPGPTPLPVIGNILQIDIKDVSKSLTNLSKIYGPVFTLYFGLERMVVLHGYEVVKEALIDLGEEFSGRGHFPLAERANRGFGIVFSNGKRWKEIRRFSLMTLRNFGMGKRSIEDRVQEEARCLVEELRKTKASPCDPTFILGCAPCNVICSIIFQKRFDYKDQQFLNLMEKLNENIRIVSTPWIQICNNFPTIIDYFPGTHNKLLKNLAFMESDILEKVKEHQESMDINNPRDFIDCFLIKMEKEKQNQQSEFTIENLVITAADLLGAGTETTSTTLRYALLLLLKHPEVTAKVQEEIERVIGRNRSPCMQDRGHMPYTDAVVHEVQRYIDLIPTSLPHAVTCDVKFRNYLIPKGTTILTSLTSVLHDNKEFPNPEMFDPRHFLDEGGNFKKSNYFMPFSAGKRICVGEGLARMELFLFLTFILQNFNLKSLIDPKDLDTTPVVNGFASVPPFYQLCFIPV

| log D values [1] | logD [1] | inhibition at 1 µM [2] [%] | inhibition at 10 µM [2] [%] | antagonist activity in calcium influx assay [4] | CYP (% inhibition) @10 μM, 2C19 [5] [%] | IC50 [6] [nM] | fraction unbound at 10 μM [8] | IC50 [9] [nM] | CYP (% inhibition) @10 μM, 2D6 [10] [%] | half-life [11] [h] | CYP (% inhibition) @10 μM, 1A2 [12] [%] | CYP (% inhibition) @10 μM, 3A4 [13] [%] | bioavailability ([11]; oral bioavailability) [%] | SMILES | hERG binding @10 μM [3] | anti-allodynic activity, mechanical allodynia (PWT, % MPE) [7] |
| --- | --- | --- | --- | --- | --- | --- | --- | --- | --- | --- | --- | --- | --- | --- | --- | --- |
| low | 1.59 | 2 | 8.9 | confirmed the antagonist activity | <5 | 1000 | 0.02 | 0.2 | <5 | 0.833 | <5 | <5 |  | CCOC(=O)c1sc(-c2cccc(F)c2)nc1O [Compound 10, ethyl 2-(3-fluorophenyl)-4-hydroxy-1,3-thiazole-5-carboxylate] | No effect | significant anti-allodynic activity |
|  | 2.7 | 5.1 | 3.1 | confirmed the antagonist activity | <5 | 0.2 | 0.01 | 1000 | <5 | 4 | <5 | <5 | 60 | O=C(O)c1sc(-c2ccc(Cl)cc2)nc1OCc1ccc(Cl)cc1 [Compound 45, 4-[(4-chlorobenzyl)oxy]-2-(4-chlorophenyl)-1,3-thiazole-5-carboxylic acid] | No effect | significant anti-allodynic activity |
